Experimental data from BindingDB's records for doi:10.1016/j.bmc.2012.08.006 (Chungnam National University, 2012).
pIC50: −log10 of the molar value.

experiment: Inhibition of IL-5 in mouse Y16 cells after 48 hrs by WST1 assay

pIC50 | Compound
4.81 | CCCN(CCO)Cc1coc2cccc(OCC3CCCCC3)c2c1=O
4.71 | CCN(CCO)Cc1coc2cccc(OCC3CCCCC3)c2c1=O
5.05 | COc1ccc(CN(CCO)Cc2coc3cccc(OCC4CCCCC4)c3c2=O)cc1
5.04 | O=c1c(CN(CCO)Cc2ccc(O)cc2)coc2cccc(OCC3CCCCC3)c12
5.03 | Cc1ccc(CN(CCO)Cc2coc3cccc(OCC4CCCCC4)c3c2=O)cc1
4.79 | O=c1c(CN(CCO)Cc2ccccc2)coc2cccc(OCC3CCCCC3)c12
4.91 | O=c1c(CN(CCO)CC2CCCCC2)coc2cccc(OCC3CCCCC3)c12
4.85 | O=c1c(CN(CCO)Cc2ccncc2)coc2cccc(OCC3CCCCC3)c12
4.99 | O=c1c(CN(CCO)Cc2ccc(Cl)cc2)coc2cccc(OCC3CCCCC3)c12
4.99 | CC(C)N(CCO)Cc1coc2cccc(OCC3CCCCC3)c2c1=O
5.04 | CCCCN(CCO)Cc1coc2cccc(OCC3CCCCC3)c2c1=O
4.84 | O=c1c(CN(CCO)c2ccccc2)coc2cccc(OCC3CCCCC3)c12
5.05 | O=c1c(CN(CCO)C2CCCCC2)coc2cccc(OCC3CCCCC3)c12
4.52 | CN(CCO)Cc1coc2cccc(OCC3CCCCC3)c2c1=O
